Reference: patent US4902675A, “"2-pyridyl and 4-pyridyl phosphine gold (I) anti tumor complexes"” (SmithKline Beckman Corporation, priority 1986, dated 1990)
Several values for one entry are separate records, joined by “and”; a condition that tells them apart may be missing. Equal entries are not always repeated.

How the values were obtained:
[1] = literature, Struck et al. 1966; cited from earlier work
[2] = maximally tolerated dose for female mice, ip qDX5 (P388 study); type: in vivo, mouse; details: B62DF female mice, ip qDX5 regimen
Description: (§1) 10^6 P388 leukemia cells are inoculated ip in B6D2F1 mice. Twenty-four hours later, if the tumor inoculum proves to be free of bacterial contamination (as determined by 24 hours incubation in thioglycollate broth), animals are randomized into groups of 6 and housed in shoebox cages. The compound to be evaluated is dissolved in a minimal volume of either N,N-dimethylacetamide (DMA) or 95% ethanol (depending upon solubility). An equal volume of saline is added; if the drug comes out of solution an equal volume of polyethoxylated castor oil is added and then saline qs to a concentration such that the desired dose is delivered in 0.5 ml. The final concentration of DMA, ethanol and polyethoxylated castor oil is […]. Dilutions for lower doses are made with saline so there is a decreasing proportion of organic solvents in the vehicle with decreasing dosage. These vehicles provide soluble formulations (or suspensions). Formulations are prepared immediately prior to injection. The compound is administered ip on Days 1 through 5 (i.e. treatment is initiated 24 hrs after tumor inoculation). Each experiment includes three groups of 6 animals as untreated controls and animals treated with a positive control, cisplatin, at two dose levels. Animals are weighed as a group on Days 1, 5 and 9 and average weight change (Δ wt.) is used as a reflection of toxicity. Each experiment also includes an inoculum titration-groups of 8 mice inoculated ip with 10^5 to 10^0 P388 leukemia cells. The titration is used to calculate cell kill achieved by treatment with drugs. Animals are monitored daily for mortality and experiments are terminated after 45 days. The endpoint is median survival time (MST) and increase in lifespan (ILS) which is the percentage of increase in MST relative to untreated controls. Untreated controls inoculated ip with 10^6 P388 leukemia cells generally survive for a median of 9 to 11 days. A drug is considered active if it produces ≥25 percent ILS.
^(a) maximally tolerated dose for […] female mice on an ip qDX5

P388 leukemia = assay: in vivo ip P388 lymphocytic leukemia mouse model, increase in lifespan; details: mice bearing ip P388 leukemia; ip Days 1 through 5; figures separated by slashes are data from separate experiments; active if ≥25 percent ILS
Source text: P388 lymphocytic leukemia is currently the most widely used animal tumor model for screening for antitumor agents and for detailed evaluation of active compounds. This tumor system is widely accepted as an antitumor agent screening tool because it is sensitive to virtually all of the clinically active antineoplastic agents; quantitative and reproducible; amenable for large-scale screening; and predictive for activity in other animal tumor models.
as §1, with “The endpoint is median survival time (MST) and increase in lifespan (ILS) which is the percentage of increase in MST relative to untreated controls. Untreated controls inoculated ip with 10^6 P388 leukemia cells generally survive for a median of 9 to 11 days. A drug is considered active if it produces ≥25 percent ILS.” left out

[3] = maximally tolerated dose for B6D2F1 mice, ip qD × 9 (B16 study); type: in vivo, mouse; details: ip qD × 9 regimen
Description: (§2) In this system, groups of eight B6D2F1 mice are inoculated ip with 0.5 ml of a 10% (w:v) brei of B16 melanoma prepared from pooled sc tumors excised at 14-21 days from […] donor mice. Daily treatment is begun 24 hours after tumor impantation and is continued daily for ten (10) days. The route of drug administration is ip. The mice are monitored daily for survival for sixty (60) days. Antitumor activity is assessed by prolongation of median survival time. An ILS of≥25% indicates activity in this tumor model.
(§3) ^(b) maximally tolerated dose for B6D2F1 mice on an ipqD ×
(§4) 9 regimen (Regimen is preferably qD × 10 but supply of Compound No.
(§5) 3 was extinguished on day 9).

B16 melanoma = assay: in vivo ip B16 melanoma assay, increase in lifespan; set-up: species or system mouse; details: mice bearing ip B16 melanoma; ip qD × 9; ILS ≥25% indicates activity
Description: as §2, §3, §4, §5
^(c) maximum increase in lifespan produced in mice bearing ip B16

Compound	cytotoxic activity [1]	MTD, maximally tolerated dose [2] [mg/kg]	ILS (max), maximum increase in lifespan (P388 leukemia)	MTD, maximally tolerated dose [3] [mg/kg]	ILS, maximum increase in lifespan (B16 melanoma) [%]
c1ccc(P(CCP(c2ccccc2)c2ccccc2)c2ccccc2)cc1 [1,2-bis(diphenylphosphino)ethane]	cytotoxic activity				
[Cl][Au][PH](CC[PH]([Au][Cl])(c1ccccn1)c1ccccn1)(c1ccccn1)c1ccccn1 [Compound 1, μ-[1,2-Bis(di-2-pyridylphosphino)ethane]bis(chlorogold)]		6	55% and 60%		
[Cl][Au][PH](CC[PH]([Au][Cl])(c1ccncc1)c1ccncc1)(c1ccncc1)c1ccncc1 [Compound 2, μ-[1,2-Bis(di-4-pyridylphosphino)ethane]bis(chlorogold)]		12			
[Au+].[Cl-].c1ccc(P(CCP(c2ccccn2)c2ccccn2)c2ccccn2)nc1.c1ccc(P(CCP(c2ccccn2)c2ccccn2)c2ccccn2)nc1 [Compound 3, Chlorobis[1,2-bis(di-2-pyridylphosphino)ethane]gold]		8	80% and 75% and 83% and 84%	10	43
OCC1OC([S][Au][PH](CC[PH]([Au][S]C2OC(CO)C(O)C(O)C2O)(c2ccccn2)c2ccccn2)(c2ccccn2)c2ccccn2)C(O)C(O)C1O (stereo not shown) [Compound 4]		8	85% and 53% and 56%		
